{"source": "patent US20150216871A1", "about": "“Use of a Humic Acid Preparation for Treating Warm-Blooded Animals” (WH […] WEINBÖHLA GMBH, priority 2012, published 2015)", "key": {"Bacillus badius": {"test_system": "Bacillus badius", "experiment": "MIC of glyphosate and neutralisation by CLK-GA, micro dilution method in RCM Bouillon", "type": "cell-based", "source_text": "(§1) The pathogen Enterococcus faecalis was isolated from the microalgae Chlorella vulgaris to citrate-acid-tween-carbonate (CATC) agar. Suspicious colonies (gram positive, catalase negative cocci) were inoculated to blood agar plates (oxoid) and differentiated by using biochemical tests. The species differentiation was confirmed by means of MALDI-TOF-MS. The isolation of the pathogen Bacillus badius was done from Chlorella vulgaris to blood agar (oxoid). The species differentiation was done based on biochemical parameters. The confirmation was done by means of MALDI-TOF-MS.\n(§2) Commercially available glyphosate preparation Roundup UltraMax® (450 g/l glyphosate as isopropylamine salt on SL formulation) was used for the test.\n(§3) The value for the minimal inhibitory concentration of glyphosate for the indicator germs (MIC) was determined by using micro dilution method (MID) in accordance with the current specifications of the National Committee for Clinical Laboratory Standards (NCCLS). It was carried out for E. faecalis and B. Badius in RCM Bouillon (SIFIN).\n(§4) The determination of the neutralising effect of humic acid product CLK-GA for glyphosate was done through glyphosate MIC. The MIC determinations for glyphosate and glyphosate-CLK-GA mixture was carried out in RCM Bouillon as described above. CLK-GA was used in the concentrations of 1.0, 0.5 and 0.25 mg/ml. The neutralisation of glyphosate was carried out in RCM Bouillon in the concentrations of 300 μg/ml, 600 μg/ml, 1200 μg/ml and 2400 μg/ml mixed with 1 mg/ml, 0.5 mg/ml and 0.25 mg/ml CLK-GA and kept overnight at 37° C. After centrifugation (3000 U/min) and filtration of the individual formulations through a centrifugal filter (3Kda, VWR, Mexico)m […] KbE E. faecalis and B. Badius was given to these. After growing it overnight at 37° C., the contents of each tube was spread on CATC agar or blood agar and was evaluated after 48 h."}, "Enterococcus faecalis": {"test_system": "Enterococcus faecalis", "experiment": "MIC of glyphosate and neutralisation by CLK-GA, micro dilution method in RCM Bouillon", "type": "cell-based", "source_text": "as §1, §2, §3, §4"}, "[1]": {"conditions": "10^4 KbE/ml suspension, end concentration 300 μg/ml glyphosate and/or 1 mg/ml CLK-GA"}}}
{"molecule": "O=C(O)CNCP(=O)(O)O", "note": "[Glyphosate, glyphosate]", "values": [{"measurement": "growth / elimination of germs in suspension", "setting": "Bacillus badius; [1]", "value": "growth was absent"}, {"measurement": "MIC", "setting": "Bacillus badius; Pseudobacillus badius, read-out: MIC values Glyphosate", "value": 150, "unit": "µg/mL"}, {"measurement": "growth / elimination of germs in suspension", "setting": "Enterococcus faecalis; [1]", "value": "growth was absent"}, {"measurement": "MIC", "setting": "Enterococcus faecalis; Enterococcus faecalis, read-out: MIC values Glyphosate", "value": 200, "unit": "µg/mL"}]}
